Laboratory results: patent US10308689B2, “Dengue virus (DV) polypeptide sequences, T cell epitopes and methods and uses thereof” (LA JOLLA INSTITUTE FOR ALLERGY AND IMMUNOLOGY, priority 2010, dated 2019)

System: PBMC of healthy adult blood donors from Colombo, Sri Lanka
Assay: Ex vivo IFNγ ELISPOT, HLA-matched PBMC of Sri Lankan blood donors
Type: cell-based, human
Parameters: Total Response per epitope: unit not given here
Settings: restricting HLA allele and serotype as given; for # donors responded: number of donors responding to the epitope; for Total Response per epitope: total over responding donors

Row | Structure (SMILES) | # donors responded | Total Response per epitope
1 | CC[C@H](C)[C@H](N)C(=O)N[C@@H](C)C(=O)N[C@@H](CC(N)=O)C(=O)N[C@@H](CCC(N)=O)C(=O)N[C@@H](C)C(=O)N[C@H](C(=O)N[C@H](C(=O)N[C@@H](CC(C)C)C(=O)N[C@@H](CCSC)C(=O)O)C(C)C)[C@@H](C)O | 7 | 1518.3
2 | CC[C@H](C)[C@H](N)C(=O)N[C@@H](C)C(=O)N[C@H](C(=O)N[C@@H](CO)C(=O)N[C@@H](CCSC)C(=O)N[C@@H](C)C(=O)N[C@@H](CC(N)=O)C(=O)N[C@H](C(=O)N[C@@H](Cc1ccccc1)C(=O)O)[C@@H](C)CC)C(C)C | 6 | 1966.7
3 | CC[C@H](C)[C@H](N)C(=O)N[C@@H](C)C(=O)N[C@H](C(=O)N[C@@H](CO)C(=O)N[C@H](C(=O)N[C@@H](C)C(=O)N[C@@H](CC(N)=O)C(=O)N[C@H](C(=O)N[C@@H](Cc1ccccc1)C(=O)O)[C@@H](C)CC)[C@@H](C)O)C(C)C | 2 | 415.0
4 | CC[C@H](C)[C@H](N)C(=O)NCC(=O)N[C@H](C(=O)NCC(=O)N[C@H](C(=O)N[C@@H](CC(C)C)C(=O)N[C@@H](CC(C)C)C(=O)N[C@H](C(=O)N[C@@H](Cc1c[nH]c2ccccc12)C(=O)O)[C@@H](C)O)[C@@H](C)CC)[C@@H](C)CC | 1 | 525.0
5 | CC[C@H](C)[C@H](N)C(=O)N[C@H](C(=O)N[C@@H](CC(C)C)C(=O)N[C@@H](CCC(=O)O)C(=O)N[C@@H](Cc1ccccc1)C(=O)N[C@@H](Cc1ccccc1)C(=O)N[C@@H](CC(C)C)C(=O)N[C@@H](CCSC)C(=O)N[C@H](C(=O)O)C(C)C)[C@@H](C)CC | 1 | 143.3
6 | CC[C@H](C)[C@H](N)C(=O)N1CCC[C@H]1C(=O)N[C@@H](Cc1ccccc1)C(=O)N[C@@H](CCC(=O)O)C(=O)N[C@H](C(=O)N[C@@H](CCSC)C(=O)N[C@@H](CC(=O)O)C(=O)N[C@@H](CC(C)C)C(=O)N[C@@H](CCC(=O)O)C(=O)N[C@@H](CCCCN)C(=O)O)[C@@H](C)CC | 5 | 1500.0
7 | CC[C@H](C)[C@H](N)C(=O)N1CCC[C@H]1C(=O)N[C@@H](CCSC)C(=O)N[C@@H](C)C(=O)N[C@H](C(=O)N[C@@H](Cc1ccc(O)cc1)C(=O)NCC(=O)N[C@@H](Cc1c[nH]c2ccccc12)C(=O)N[C@@H](CC(N)=O)C(=O)N[C@@H](CC(C)C)C(=O)O)[C@@H](C)O | 2 | 456.7
8 | CC[C@H](C)[C@H](N)C(=O)N1CCC[C@H]1C(=O)N[C@@H](CCSC)C(=O)N[C@@H](CO)C(=O)N[C@H](C(=O)N[C@@H](Cc1ccc(O)cc1)C(=O)NCC(=O)N[C@@H](Cc1c[nH]c2ccccc12)C(=O)N[C@@H](CC(N)=O)C(=O)N[C@@H](CC(C)C)C(=O)O)[C@@H](C)O | 3 | 320.0
9 | CC[C@H](C)[C@H](N)C(=O)N1CCC[C@H]1C(=O)N[C@@H](CCSC)C(=O)N[C@H](C(=O)NCC(=O)N1CCC[C@H]1C(=O)N[C@@H](CC(C)C)C(=O)N[C@H](C(=O)N[C@@H](C)C(=O)NCC(=O)O)C(C)C)[C@@H](C)O | 5 | 1160.0
10 | CC[C@H](C)[C@H](N)C(=O)N[C@@H](CCC(N)=O)C(=O)N1CCC[C@H]1C(=O)N[C@@H](Cc1ccccc1)C(=O)N[C@@H](CC(C)C)C(=O)N[C@@H](C)C(=O)N[C@@H](CC(C)C)C(=O)NCC(=O)N[C@@H](Cc1ccccc1)C(=O)O | 1 | 85.0
11 | CC[C@H](C)[C@H](N)C(=O)N[C@H](C(=O)N[C@@H](CC(C)C)C(=O)N[C@@H](CC(C)C)C(=O)N[C@@H](CS)C(=O)N[C@@H](CC(C)C)C(=O)N[C@H](C(=O)N1CCC[C@H]1C(=O)N[C@H](C(=O)N[C@H](C(=O)O)C(C)C)[C@@H](C)O)[C@@H](C)CC)[C@@H](C)O | 1 | 63.3
